From ChEMBL document CHEMBL4368895, “Incorporation of an intramolecular hydrogen bonding motif in the side chain of antimalarial benzimidazoles” (Medchemcomm, 2019)
≈ marks a conversion by molar mass, not a printed value.

Legend:
Plasmodium falciparum [1] = assay: Antiplasmodium activity against chloroquine-sensitive Plasmodium falciparum NF54 asexual blood stage forms infected in human erythrocytes assessed as reduction in [3H]-hypoxanthine incorporation incubated for 48 hrs by liquid scintillation counting method; type: functional, organism-based
Plasmodium falciparum [2] = assay: Antiplasmodium activity against multidrug resistant Plasmodium falciparum K1 asexual blood stage forms infected in human erythrocytes assessed as reduction in [3H]-hypoxanthine incorporation incubated for 48 hrs by liquid scintillation counting method; type: functional, organism-based
CHO = assay: Cytotoxicity in CHO cells assessed as reduction in cell viability by MTT assay; type: cell-based; conditions: Cricetulus griseus
[3] = Selectivity index, ratio of IC50 for cytotoxicity in CHO cells to IC50 for antiplasmodium activity against chloroquine-sensitive Plasmodium falciparum NF54 asexual blood stage forms infected in human erythrocytes; type: toxicity, cell-based; conditions: Chinese hamster, read-out: Ratio IC50
Hemozoin = assay: Inhibition of beta-hematin formation assessed as reduction in hemozoin formation incubated for 5 hrs by NP40 detergent-based assay
[4] = Kinetic solubility in pH 7.4 PBS at 0.125 to 8 mM incubated for 2 hrs by turbidimetric kinetic solubility assay; type: physicochemical; conditions: read-out: Kinetic_solubility

Row | SMILES | IC50 (Plasmodium falciparum [1]) | IC50 (Plasmodium falciparum [2]) | IC50 (CHO) | selectivity ratio [3] | IC50 (Hemozoin) | solubility kinetic at 2 h [4]
1 | CCN(CCNc1nc2ccccc2[nH]1)Cc1ccccc1O | 474 nM | 2660 nM | 50 µM | 105 | 452 µM | > 200 µM
2 | CCN(CCNc1nc2ccccc2[nH]1)Cc1cc(C#N)ccc1O | 968 nM | > 10000 nM | 50 µM | 52 | 250 µM | 160 µM (≈ 53.7 µg/mL)
3 | C[C@H]1[C@H](OC(=O)CCC(=O)O)O[C@@H]2O[C@@]3(C)CC[C@H]4[C@H](C)CC[C@@H]1[C@@]24OO3 [ARTESUNATE] | 7 nM | – | – | – | – | –
4 | CCN(CCNc1nc2ccccc2[nH]1)Cc1ccc(Cl)cc1O | 79 nM | 335 nM | 21.6 µM | 273 | 32 µM | 160 µM (≈ 55.2 µg/mL)
5 | CCN(CCNc1nc2ccccc2[nH]1)Cc1ccccc1 | 3600 nM | 1880 nM | – | – | – | 140 µM (≈ 41.2 µg/mL)
6 | CCN(CCNc1nc2ccccc2[nH]1)Cc1cccc(F)c1O | 299 nM | 1490 nM | 50 µM | 167 | 161 µM | 160 µM (≈ 52.5 µg/mL)
7 | CCN(CCNc1nc2ccccc2[nH]1)Cc1cc(F)cc(F)c1O | 222 nM | 952 nM | 50 µM | 225 | 68 µM | 140 µM (≈ 48.5 µg/mL)
8 | CCN(CCNc1nc2ccccc2[nH]1)Cc1cc(OC)ccc1O | 320 nM | 3040 nM | 50 µM | 156 | 489 µM | 160 µM (≈ 54.5 µg/mL)
9 | CCN(CCNc1nc2ccccc2[nH]1)Cc1cccnc1O | > 10000 nM | > 10000 nM | 50 µM | – | – | > 200 µM
10 | CC[C@H]1CN2CCc3cc(OC)c(OC)cc3[C@@H]2C[C@@H]1C[C@H]1NCCc2cc(OC)c(OC)cc21 [EMETINE] | – | – | 0.059 µM | – | – | –
11 | CCN(CCNc1nc2ccccc2[nH]1)Cc1cc(Cl)ccc1O | 110 nM | 762 nM | 25.1 µM | 228 | 125 µM | 160 µM (≈ 55.2 µg/mL)
12 | CCN(CCNc1nc2ccccc2[nH]1)Cc1cc(C)ccc1O | 408 nM | 2420 nM | 24.5 µM | 60 | 4220 µM | > 200 µM
13 | CCN(CCNc1nc2ccccc2[nH]1)Cc1cc(Cl)cc(Cl)c1O | 400 nM | 1400 nM | 50 µM | 125 | 30 µM | 160 µM (≈ 60.7 µg/mL)
14 | CCN(CCNc1nc2ccccc2[nH]1)Cc1cccc(Cl)c1O | 521 nM | 1250 nM | 50 µM | 96 | 130 µM | 160 µM (≈ 55.2 µg/mL)
